What was measured:
Assay type in all cases: biochemical
[1] = target: T1, CYP2C19 (Homo sapiens, UniProt P33261); test: Cocktail assay for CYPs, mephenytoin 4′-hydroxylation (CYP2C19), human liver microsomes; settings: 30 μM mephenytoin, 0.1 mg/mL human liver microsomes, 10 min at 37° C.; read-out: CYP IC50 (nM) 2C19
T1 construct: 0.1 mg/mL protein human liver microsomes (BD Gentest); tissue BD Gentest; host or cells: human liver microsomes
Procedure, shortened: (§1)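 Pooled human liver microsomes (0.1 mg/mL) with probe cocktail incl. 5 μM diclofenac (CYP2C9) and 30 μM mephenytoin (CYP2C19), 1 mM NADPH, pH 7.4 phosphate buffer, 10 min at 37° C. Metabolites quantified by LC/MS/MS against internal standard; % inhibition versus no-inhibitor control, IC50 by non-linear regression.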

[2] = target: T2, CYP1A2 (Homo sapiens, UniProt P05177); test: Cocktail assay for CYPs, phenacetin O-deethylation (CYP1A2), human liver microsomes; settings: 10 μM phenacetin, 0.1 mg/mL human liver microsomes, 10 min at 37° C.; read-out: CYP IC50 (nM) 1A2
T2 construct: 0.1 mg/mL protein human liver microsomes (BD Gentest); tissue BD Gentest; host or cells: human liver microsomes
T2 sequence (P05177 1-516): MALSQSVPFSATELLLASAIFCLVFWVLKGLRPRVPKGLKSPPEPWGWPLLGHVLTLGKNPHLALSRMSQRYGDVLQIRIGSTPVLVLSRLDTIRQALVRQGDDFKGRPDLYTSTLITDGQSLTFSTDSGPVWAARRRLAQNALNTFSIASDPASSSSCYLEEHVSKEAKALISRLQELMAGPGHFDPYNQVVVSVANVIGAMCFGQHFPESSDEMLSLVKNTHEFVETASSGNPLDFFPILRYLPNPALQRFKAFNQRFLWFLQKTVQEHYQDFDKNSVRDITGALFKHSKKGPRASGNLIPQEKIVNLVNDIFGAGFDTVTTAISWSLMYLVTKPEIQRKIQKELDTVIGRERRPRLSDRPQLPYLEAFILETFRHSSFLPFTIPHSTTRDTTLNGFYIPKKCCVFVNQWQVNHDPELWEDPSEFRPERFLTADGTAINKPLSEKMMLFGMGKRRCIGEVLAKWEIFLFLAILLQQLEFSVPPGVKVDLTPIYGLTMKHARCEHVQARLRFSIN
Procedure, shortened: (§2)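 Pooled human liver microsomes (0.1 mg/mL) with a probe cocktail of 10 μM phenacetin, 5 μM dextromethorphan and 2 μM midazolam plus NADPH, pH 7.4, 10 min at 37° C. Each metabolite was quantified by LC/MS/MS against a tolbutamide internal standard. IC50 came from % inhibition at 6 concentrations (e.g. 0.0032–10 μM) by non-linear regression.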

[3] = target: T3, CYP3A4 (Homo sapiens, UniProt P08684); test: IC50 vs CYP3A by inhibition of lopinavir metabolism in human liver microsomes; design: 0.01 mg/mL protein human liver microsomes (BD Gentest); tissue BD Gentest; host or cells: human liver microsomes; settings: 1.5 μM lopinavir, 0.01 mg/mL human liver microsomes, 8 min at 37° C.; read-out: CYP IC50 (nM) 3A4 (LPV)
Procedure, shortened: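 Human liver microsomes (0.01 mg/mL) with 1.5 μM lopinavir, 1 mM NADPH, 3.3 mM MgCl2 in 100 mM potassium phosphate pH 7.4, 8 min at 37 °C, six compound concentrations. Summed M2/M3/M4 hydroxy metabolites quantified by LC/MS/MS against tolbutamide; % inhibition normalised between no-inhibitor and 5 μM ketoconazole controls, IC50 by non-linear regression.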
Target sequence in this assay (P08684 2-503): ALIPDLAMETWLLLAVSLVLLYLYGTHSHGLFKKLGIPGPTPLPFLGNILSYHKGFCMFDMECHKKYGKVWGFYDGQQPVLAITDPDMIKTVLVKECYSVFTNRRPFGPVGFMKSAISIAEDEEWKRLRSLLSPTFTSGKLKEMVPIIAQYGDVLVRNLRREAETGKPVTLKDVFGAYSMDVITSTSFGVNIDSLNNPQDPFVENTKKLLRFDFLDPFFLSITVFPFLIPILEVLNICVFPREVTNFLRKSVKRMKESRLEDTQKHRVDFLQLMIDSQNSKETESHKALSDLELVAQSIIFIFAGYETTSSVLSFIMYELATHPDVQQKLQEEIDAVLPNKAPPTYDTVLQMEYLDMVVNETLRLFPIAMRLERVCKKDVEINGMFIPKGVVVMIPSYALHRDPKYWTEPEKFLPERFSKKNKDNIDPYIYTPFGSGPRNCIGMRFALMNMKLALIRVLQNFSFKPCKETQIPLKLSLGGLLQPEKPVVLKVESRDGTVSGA

[4] = target: T4, CYP2C9 (Homo sapiens, UniProt P11712); test: Cocktail assay for CYPs, diclofenac 4′-hydroxylation (CYP2C9), human liver microsomes; settings: 5 μM diclofenac, 0.1 mg/mL human liver microsomes, 10 min at 37° C.; read-out: CYP IC50 (nM) 2C9
T4 construct: 0.1 mg/mL protein human liver microsomes (BD Gentest); tissue BD Gentest; host or cells: human liver microsomes
Procedure, shortened: as §1

[5] = target: T3, CYP3A4; test: Cocktail assay for CYPs, midazolam 1′-hydroxylation (CYP3A4), human liver microsomes; design: 0.1 mg/mL protein human liver microsomes (BD Gentest); tissue BD Gentest; host or cells: human liver microsomes; settings: 2 μM midazolam, 0.1 mg/mL human liver microsomes, 10 min at 37° C.; read-out: CYP IC50 (nM) 3A4 (MDZ)
Procedure, shortened: as §2
Target sequence in this assay (P08684 whole entry): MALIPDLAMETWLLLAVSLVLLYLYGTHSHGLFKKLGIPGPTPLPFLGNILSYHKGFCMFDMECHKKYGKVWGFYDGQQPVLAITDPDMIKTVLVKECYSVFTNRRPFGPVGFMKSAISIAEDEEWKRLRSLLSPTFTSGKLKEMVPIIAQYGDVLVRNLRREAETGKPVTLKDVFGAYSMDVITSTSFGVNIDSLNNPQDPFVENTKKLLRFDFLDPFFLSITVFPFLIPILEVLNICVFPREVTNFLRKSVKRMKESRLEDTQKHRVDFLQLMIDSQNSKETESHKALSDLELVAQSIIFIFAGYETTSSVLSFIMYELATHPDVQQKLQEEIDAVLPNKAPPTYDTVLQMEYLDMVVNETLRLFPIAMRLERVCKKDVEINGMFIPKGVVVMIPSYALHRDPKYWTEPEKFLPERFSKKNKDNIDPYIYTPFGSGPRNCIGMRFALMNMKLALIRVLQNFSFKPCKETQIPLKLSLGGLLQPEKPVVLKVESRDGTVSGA

[6] = target: T5, CYP2D6 (Homo sapiens, UniProt P10635); test: Cocktail assay for CYPs, dextromethorphan O-demethylation (CYP2D6), human liver microsomes; settings: 5 μM dextromethorphan, 0.1 mg/mL human liver microsomes, 10 min at 37° C.; read-out: CYP IC50 (nM) 2D6
T5 construct: 0.1 mg/mL protein human liver microsomes (BD Gentest); tissue BD Gentest; host or cells: human liver microsomes
Procedure, shortened: as §2

T1 sequence (P33261 whole entry): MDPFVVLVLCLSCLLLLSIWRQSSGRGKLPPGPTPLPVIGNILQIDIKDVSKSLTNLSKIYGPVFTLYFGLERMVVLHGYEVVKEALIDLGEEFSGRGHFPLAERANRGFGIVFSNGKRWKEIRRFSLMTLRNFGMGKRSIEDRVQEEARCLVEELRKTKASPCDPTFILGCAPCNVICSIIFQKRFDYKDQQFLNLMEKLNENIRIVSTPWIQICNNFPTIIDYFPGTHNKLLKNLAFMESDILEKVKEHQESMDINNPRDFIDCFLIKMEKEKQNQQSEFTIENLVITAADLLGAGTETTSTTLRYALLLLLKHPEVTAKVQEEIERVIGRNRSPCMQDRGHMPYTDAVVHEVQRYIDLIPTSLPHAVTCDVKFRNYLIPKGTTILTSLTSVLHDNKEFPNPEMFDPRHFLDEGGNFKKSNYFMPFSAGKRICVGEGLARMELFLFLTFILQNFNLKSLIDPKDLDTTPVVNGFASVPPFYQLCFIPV
T5 sequence (P10635 whole entry): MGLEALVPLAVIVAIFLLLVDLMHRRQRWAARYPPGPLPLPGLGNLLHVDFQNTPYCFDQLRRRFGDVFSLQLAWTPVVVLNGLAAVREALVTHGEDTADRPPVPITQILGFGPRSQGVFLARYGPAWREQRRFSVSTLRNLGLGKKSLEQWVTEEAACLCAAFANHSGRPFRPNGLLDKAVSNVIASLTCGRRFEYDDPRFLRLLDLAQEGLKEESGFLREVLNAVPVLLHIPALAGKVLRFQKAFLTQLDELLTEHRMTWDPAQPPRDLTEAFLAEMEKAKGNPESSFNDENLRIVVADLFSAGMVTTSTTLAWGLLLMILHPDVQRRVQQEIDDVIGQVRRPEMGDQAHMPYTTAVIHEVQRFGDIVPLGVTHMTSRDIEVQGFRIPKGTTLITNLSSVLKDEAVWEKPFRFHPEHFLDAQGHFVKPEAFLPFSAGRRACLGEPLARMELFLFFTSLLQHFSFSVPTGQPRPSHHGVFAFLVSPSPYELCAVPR
T4 sequence (P11712 whole entry): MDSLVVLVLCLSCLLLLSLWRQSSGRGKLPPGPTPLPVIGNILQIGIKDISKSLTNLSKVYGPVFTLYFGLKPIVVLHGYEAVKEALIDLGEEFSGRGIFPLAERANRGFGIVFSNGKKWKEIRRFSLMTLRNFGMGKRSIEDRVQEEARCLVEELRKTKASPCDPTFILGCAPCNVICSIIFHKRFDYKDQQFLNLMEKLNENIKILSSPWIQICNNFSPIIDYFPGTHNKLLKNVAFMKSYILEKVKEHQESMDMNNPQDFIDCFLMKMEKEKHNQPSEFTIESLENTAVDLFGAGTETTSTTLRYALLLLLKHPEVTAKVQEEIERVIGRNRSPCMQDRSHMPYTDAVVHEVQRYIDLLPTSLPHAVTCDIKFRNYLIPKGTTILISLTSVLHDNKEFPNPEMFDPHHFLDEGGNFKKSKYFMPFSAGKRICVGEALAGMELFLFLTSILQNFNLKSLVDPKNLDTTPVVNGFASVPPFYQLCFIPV

IC50 [1] | IC50 [2] | IC50 [3] | IC50 [4] | IC50 [5] | IC50 [6] | SMILES
2610 nM | 2500 nM | 5 nM | 4950 nM | 7.5 nM | 3680 nM | C[C@H](c1ccc(F)cc1)n1cncc1-c1cccc2c1CCN(S(=O)(=O)c1cnc(N3CCN4C[C@H](O)C[C@H]4C3)s1)C2 [Compound 63, (7R,8aS)-2-(5-((5-(1-((R)-1-(4-fluorophenyl)ethyl)-1H-imidazol-5-yl)-3,4-dihydroisoquinolin-2(1H)-yl)sulfonyl)thiazol-2-yl)octahydropyrrolo[1,2-a]pyrazin-7-ol]
> 10000 nM | 4490 nM | 2 nM | 7950 nM | 5.8 nM | 5360 nM | O=C(c1ccc(N2CCOCC2)nc1)N1CCCC1c1ccccc1-c1cncn1CCc1ccc(F)cc1 (single isomer, unassigned) [Compound 43b, (R or S)-(2-(2-(1-(4-fluorophenethyl)-1H-imidazol-5-yl)phenyl)pyrrolidin-1-yl) (6-morpholino-pyridin-3-yl) methanone]
9720 nM | > 10000 nM | 0.9 nM | 6930 nM | 4 nM | 3060 nM | O=S(=O)(c1ccc(N2CCN(CCO)CC2)nc1)N1CCCC1c1ccccc1-c1cncn1CCc1ccc(F)cc1 (single isomer, unassigned) [Compound 35b, (R or S)-2-(4-(5-((2-(2-(1-(4-fluorophenethyl)-1H-imidazol-5-yl)phenyl)pyrrolidin-1-yl)sulfonyl)pyridin-2-yl)piperazin-1-yl)ethanol]
249 nM | 6500 nM | 6 nM | 1970 nM | 5.76 nM | 2460 nM | O=C(c1ccc(N2CCOCC2)nc1)N1CCCC1c1cccc(-c2cncn2CCc2ccc(F)cc2)c1 (stereo not drawn) [Compound 52, (2-(3-(1-(4-fluorophenethyl)-1H-imidazol-5-yl)phenyl)pyrrolidin-1-yl) (6-morpholino-pyridin-3-yl) methanone]
44 nM | 1450 nM | 2.3 nM | 10 nM | 11 nM | 765 nM | CC(=O)Nc1ncc(S(=O)(=O)N2CCc3cc(-c4cncn4CCc4ccc(F)cc4)ccc3C2)s1 [Compound 1, N-(5-((6-(1-(4-fluorophenethyl)-1H-imidazol-5-yl)-3,4-dihydroisoquinolin-2(1H)-yl)sulfonyl)thiazol-2-yl)acetamide]
> 10000 nM | > 10000 nM | 54 nM | 7410 nM | 137 nM | 1100 nM | O=S(=O)(NCCc1ccccc1-c1cncn1CCc1ccc(F)cc1)c1cccnc1 [Compound 14, N-(2-(1-(4-fluorophenethyl)-1H-imidazol-5-yl)phenethyl)pyridine-3-sulfonamide]
> 10000 nM | > 10000 nM | 14 nM | 4300 nM | 22 nM | 2530 nM | CC(NS(=O)(=O)c1cnc(N2CCN(C)CC2)s1)c1ccc(-c2cncn2CCc2ccc(F)cc2)cc1 (stereo not drawn) [Compound 3, N-(1-(4-(1-(4-fluorophenethyl)-1H-imidazol-5-yl)phenyl)ethyl)-2-(4-methylpiperazin-1-yl)thiazole-5-sulfonamide]
238 nM | > 10000 nM | 1.3 nM | 575 nM | 5.2 nM | 2720 nM | COCCN(C)c1ccc(S(=O)(=O)N2CCc3c(cccc3-c3cncn3CCc3ccc(F)cc3)C2)cn1 [Compound 62, 5-((5-(1-(4-fluorophenethyl)-1H-imidazol-5-yl)-3,4-dihydroisoquinolin-2(1H)-yl)sulfonyl)-N-(2-methoxy-ethyl)-N-methylpyridin-2-amine]
4190 nM | 5890 nM | 5.6 nM | 4410 nM | 13.7 nM | 4050 nM | CC(=O)Nc1ncc(S(=O)(=O)N2CCCC2c2ccccc2-c2cncn2CCc2ccc(F)cc2)s1 (stereo not drawn) [Compound 21, N-(5-((2-(2-(1-(4-fluorophenethyl)-1H-imidazol-5-yl)phenyl)pyrrolidin-1-yl)sulfonyl)thiazol-2-yl) acetamide]
2110 nM | 1160 nM | 34.7 nM | 4640 nM | 22.6 nM | 6780 nM | CS(=O)(=O)N1CCCC1c1cccc(-c2cncn2CCc2ccc(F)cc2)c1 (stereo not drawn) [Compound 51, 1-(4-fluorophenethyl)-5-(3-(1-(methylsulfonyl)pyrrolidin-2-yl)phenyl)-1H-imidazole]
4980 nM | > 10000 nM | 10.1 nM | 1150 nM | 11.8 nM | > 10000 nM | CN(C)c1ccc(S(=O)(=O)N2CCCC2c2ccccc2-c2cncn2CCc2ccc(F)cc2)cn1 (single isomer, unassigned) [Compound 28b, (R or S)-5-((2-(2-(1-(4-fluorophenethyl)-1H-imidazol-5-yl)phenyl)pyrrolidin-1-yl)sulfonyl)-N,N-dimethylpyridin-2-amine]
6910 nM | > 10000 nM | > 100 nM | > 10000 nM | 58.6 nM | > 10000 nM | O=C(C1CCOCC1)N1CCCC1c1cccc(-c2cncn2CCc2ccc(F)cc2)c1 (single isomer, unassigned) [Compound 49b, (R or S)-(2-(3-(1-(4-fluorophenethyl)-1H-imidazol-5-yl)phenyl)pyrrolidin-1-yl)(tetrahydro-2H-pyran-4-yl)methanone]
452 nM | 3400 nM | 11.8 nM | 798 nM | 18.8 nM | 4150 nM | CC(C)OC(=O)N1CCCC1c1cccc(-c2cncn2CCc2ccc(F)cc2)c1 (stereo not drawn) [Compound 56, Isopropyl 2-(3-(1-(4-fluorophenethyl)-1H-imidazol-5-yl)phenyl) pyrrolidine-1-carboxylate]
78.6 nM | 1080 nM | 2 nM | 165 nM | 8.65 nM | 1370 nM | COc1ccc(OC)c(S(=O)(=O)N2CCCC2c2cccc(-c3cncn3CCc3ccc(F)cc3)c2)c1 (single isomer, unassigned) [Compound 53a, (R or S)-5-(3-(1-((2,5-dimethoxyphenyl)sulfonyl)pyrrolidin-2-yl)phenyl)-1-(4-fluorophenethyl)-1H-imidazole]
2300 nM | 3350 nM | 5.5 nM | 1770 nM | 6.7 nM | 6860 nM | CC(C)(C)OC(=O)N1CCCC1c1ccccc1-c1cncn1CCc1ccc(F)cc1 (stereo not drawn) [Compound 38, tert-butyl 2-(2-(1-(4-fluorophenethyl)-1H-imidazol-5-yl)phenyl) pyrrolidine-1-carboxylate]
148 nM | > 10000 nM | 2.4 nM | 684 nM | 9 nM | 2100 nM | CN1CCN(c2ncc(S(=O)(=O)N3CCCC3c3ccc(-c4cncn4CCc4ccc(F)cc4)cc3)s2)CC1 (stereo not drawn) [Compound 9, 5-((2-(4-(1-(4-fluorophenethyl)-1H-imidazol-5-yl)phenyl)pyrrolidin-1-yl)sulfonyl)-2-(4-methylpiperazin-1-yl)thiazole]

From patent US9975888B2, “Aryl linked imidazole and triazole derivatives and methods of use thereof for improving the pharmacokinetics of a drug” (MERCK SHARP & DOHME CORP., priority 2013, dated 2018)
